Laboratory results taken from ChEMBL document CHEMBL1201862, “PubChem BioAssay data set” (2004).
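Step 1: Grow cells in 96-well plates. Step 2: Expose to compound for 48 hours at 5 concentrations. Step 3: Interpolate endpoints linearly; if unreached, use highest concentration. The concentration for 50% growth inhibition is given as GI50.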 Active and inactive are the calls of the source. Rule as the data show it: active = GI50 up to about 1.1 µM and inactive = higher.

Columns and labels:
Assay in all cases: NCI tumour cell line growth inhibition, 48 h
SK-MEL-2 = test system: SK-MEL-2
HCT-15 = test system: HCT-15
SK-MEL-28 = test system: SK-MEL-28
SF-268 = test system: SF-268
DU-145 = test system: DU-145
RXF 393 = test system: RXF 393
SF-539 = test system: SF-539
SK-MEL-5 = test system: SK-MEL-5
NCI-H23 = test system: NCI-H23
K562 = test system: K562
MOLT-4 = test system: MOLT-4
786-0 = test system: 786-0
HOP-62 = test system: HOP-62
Hs-578T = test system: Hs-578T
T47D = test system: T47D
OVCAR-4 = test system: OVCAR-4
BT-549 = test system: BT-549
OVCAR-5 = test system: OVCAR-5
HCC 2998 = test system: HCC 2998

| Structure (SMILES) | GI50 (SK-MEL-2) | GI50 (HCT-15) | GI50 (SK-MEL-28) | GI50 (SF-268) | GI50 (DU-145) | GI50 (RXF 393) | GI50 (SF-539) | GI50 (SK-MEL-5) | GI50 (NCI-H23) | GI50 (K562) | GI50 (MOLT-4) | GI50 (786-0) | GI50 (HOP-62) | GI50 (Hs-578T) | GI50 (T47D) | GI50 (OVCAR-4) | GI50 (BT-549) | GI50 (OVCAR-5) | GI50 (HCC 2998) |
| --- | --- | --- | --- | --- | --- | --- | --- | --- | --- | --- | --- | --- | --- | --- | --- | --- | --- | --- | --- |
| CN(C)Cc1ccc(O)c(CN(C)C)n1 | > 100 µM (inactive) | > 100 µM | > 100 µM (inactive) | > 100 µM (inactive) | > 100 µM (inactive) | > 100 µM (inactive) | > 100 µM (inactive) | > 100 µM (inactive) | > 100 µM (inactive) | > 100 µM (inactive) | > 100 µM (inactive) | > 100 µM (inactive) | > 100 µM (inactive) | > 100 µM (inactive) | > 100 µM (inactive) | > 100 µM (inactive) | > 100 µM (inactive) | > 100 µM (inactive) | – |
| C=CC(C)(C)c1c(OC)oc2ccc(OC)c(C)c2c1=O | > 100 µM (inactive) | 98.2 µM | > 100 µM (inactive) | > 100 µM (inactive) | > 100 µM (inactive) | – | > 100 µM (inactive) | 61.7 µM (inactive) | > 100 µM (inactive) | 78.2 µM (inactive) | 49.5 µM (inactive) | > 100 µM (inactive) | > 100 µM (inactive) | > 100 µM (inactive) | 56.4 µM (inactive) | – | 90.2 µM (inactive) | > 100 µM (inactive) | > 100 µM (inactive) |
| CC(=O)NC1CONC1=O (stereo not drawn) | > 100 µM (inactive) | > 100 µM | > 100 µM (inactive) | > 100 µM (inactive) | > 100 µM (inactive) | > 100 µM (inactive) | > 100 µM (inactive) | > 100 µM (inactive) | > 100 µM (inactive) | > 100 µM (inactive) | > 100 µM (inactive) | > 100 µM (inactive) | > 100 µM (inactive) | > 100 µM (inactive) | > 100 µM (inactive) | > 100 µM (inactive) | > 100 µM (inactive) | > 100 µM (inactive) | – |
| CC1(C)CC2C(=O)c3ccccc3NC2c2ccccc21 (stereo not drawn) | – | 3.6 µM | 5.51 µM (inactive) | 14.6 µM (inactive) | 3.6 µM (inactive) | 1.87 µM (inactive) | 2.33 µM (inactive) | 3.5 µM (inactive) | 4.98 µM (inactive) | 1.09 µM (active) | 0.735 µM (active) | 3.94 µM (inactive) | 3.75 µM (inactive) | 2.87 µM (inactive) | 4.51 µM (inactive) | 57 µM (inactive) | 10.8 µM (inactive) | > 26.2 µM (inactive) | 5.86 µM (inactive) |
| O=C1/C(=C/c2ccc(OC(=O)c3ccc(Cl)cc3)cc2)CCC/C1=C\c1ccc(OC(=O)c2ccc(Cl)cc2)cc1 | > 100 µM (inactive) | > 100 µM | > 100 µM (inactive) | > 100 µM (inactive) | > 100 µM (inactive) | – | 30 µM (inactive) | > 100 µM (inactive) | > 100 µM (inactive) | – | > 100 µM (inactive) | 55 µM (inactive) | 19.4 µM (inactive) | 23.8 µM (inactive) | > 100 µM (inactive) | > 100 µM (inactive) | > 100 µM (inactive) | > 100 µM (inactive) | > 100 µM (inactive) |
| Cc1n[n+]([O-])c(C)cc1[N+](=O)[O-] | 20.1 µM (inactive) | 15.9 µM | 18 µM (inactive) | 46 µM (inactive) | 21.7 µM (inactive) | 25.2 µM (inactive) | 27.6 µM (inactive) | 16.3 µM (inactive) | 16 µM (inactive) | – | – | 27.9 µM (inactive) | 19.5 µM (inactive) | 28.6 µM (inactive) | 17.4 µM (inactive) | 19.4 µM (inactive) | 24.7 µM (inactive) | 19.5 µM (inactive) | 12.5 µM (inactive) |
| CCC1([N+](=O)[O-])CN(N=O)C1 | > 100 µM (inactive) | > 100 µM | > 100 µM (inactive) | > 100 µM (inactive) | > 100 µM (inactive) | > 100 µM (inactive) | > 100 µM (inactive) | > 100 µM (inactive) | > 100 µM (inactive) | > 100 µM (inactive) | > 100 µM (inactive) | > 100 µM (inactive) | > 100 µM (inactive) | > 100 µM (inactive) | > 100 µM (inactive) | > 100 µM (inactive) | > 100 µM (inactive) | > 100 µM (inactive) | – |
| COCN(CCC1=CCCCC1)C(=O)OC | > 100 µM (inactive) | > 100 µM | > 100 µM (inactive) | > 100 µM (inactive) | 49.8 µM (inactive) | > 100 µM (inactive) | – | 81.7 µM (inactive) | 51.6 µM (inactive) | 61.5 µM (inactive) | > 100 µM (inactive) | > 100 µM (inactive) | > 100 µM (inactive) | > 100 µM (inactive) | 89.1 µM (inactive) | > 100 µM (inactive) | > 100 µM (inactive) | > 100 µM (inactive) | > 100 µM (inactive) |
| COc1cc2c(cc1OCCCCN1CCN(CCCCOc3cc4c(cc3OC)C(=O)N3CCC[C@H]3C=N4)CC1)N=C[C@@H]1CCCN1C2=O | 0.0389 µM (active) | 1.14 µM | 0.0206 µM (active) | < 0.0289 µM (active) | 0.0361 µM (active) | 0.0676 µM (active) | < 0.01 µM (active) | 0.0138 µM (active) | < 0.0241 µM (active) | 0.0199 µM (active) | < 0.01 µM (active) | < 0.014 µM (active) | 0.0236 µM (active) | 0.0608 µM (active) | < 0.0118 µM (active) | 0.0776 µM (active) | 0.0202 µM (active) | 0.0417 µM (active) | – |
| O=Nc1c(-c2cccc([N+](=O)[O-])c2)nc2cnccn12 | 27.9 µM (inactive) | 14.5 µM | 21.5 µM (inactive) | 25.9 µM (inactive) | 16.4 µM (inactive) | 23 µM (inactive) | 20.3 µM (inactive) | 29.4 µM (inactive) | 16.7 µM (inactive) | 18.3 µM (inactive) | 3.92 µM (inactive) | 16 µM (inactive) | 26.6 µM (inactive) | 31.7 µM (inactive) | 15.1 µM (inactive) | 17.7 µM (inactive) | 27.9 µM (inactive) | 20.1 µM (inactive) | – |
| CCOP(C)(=O)C(N)Cc1ccc(OC)c(OC)c1 (stereo not drawn) | – | > 100 µM | > 100 µM (inactive) | > 100 µM (inactive) | > 100 µM (inactive) | > 100 µM (inactive) | > 100 µM (inactive) | > 100 µM (inactive) | > 100 µM (inactive) | > 100 µM (inactive) | > 100 µM (inactive) | > 100 µM (inactive) | > 100 µM (inactive) | > 100 µM (inactive) | > 100 µM (inactive) | > 100 µM (inactive) | > 100 µM (inactive) | – | > 100 µM (inactive) |
| Cc1ccc(SCC(OCn2cnc3c(N)ncnc32)[C@H](C)F)cc1 (stereo partly drawn) | > 100 µM (inactive) | > 100 µM | > 100 µM (inactive) | > 100 µM (inactive) | > 100 µM (inactive) | – | > 100 µM (inactive) | 41.4 µM (inactive) | > 100 µM (inactive) | – | > 100 µM (inactive) | > 100 µM (inactive) | > 100 µM (inactive) | > 100 µM (inactive) | > 100 µM (inactive) | > 100 µM (inactive) | 40.9 µM (inactive) | > 100 µM (inactive) | > 100 µM (inactive) |
| O=C1CC(NCc2ccccc2)c2c(Cl)sc(Cl)c21 (stereo not drawn) | 19.5 µM (inactive) | 20.1 µM | 28.1 µM (inactive) | 16.3 µM (inactive) | 35.8 µM (inactive) | – | 27.2 µM (inactive) | 27 µM (inactive) | 17.4 µM (inactive) | 16.6 µM (inactive) | 4.23 µM (inactive) | 17.1 µM (inactive) | 29 µM (inactive) | 41.8 µM (inactive) | 73.1 µM (inactive) | 28.4 µM (inactive) | 31 µM (inactive) | 39.8 µM (inactive) | 17.4 µM (inactive) |
| C/C(O)=C/C(=O)c1[nH]c(C(=O)O)cc1C1CCN(Cc2ccccc2)C1=O (stereo not drawn) | 22.8 µM (inactive) | 11 µM | 23.2 µM (inactive) | 20 µM (inactive) | 18.3 µM (inactive) | 12 µM (inactive) | – | 19.9 µM (inactive) | 17.9 µM (inactive) | 29.4 µM (inactive) | 20 µM (inactive) | 21 µM (inactive) | 15.8 µM (inactive) | 32.4 µM (inactive) | 15.7 µM (inactive) | 34 µM (inactive) | 22.6 µM (inactive) | 25.2 µM (inactive) | 13.2 µM (inactive) |
| O=C(CC(=O)CC(O)(C(F)(F)F)C(F)(F)F)CC(O)(C(F)(F)F)C(F)(F)F | > 10 µM (inactive) | > 10 µM | > 10 µM (inactive) | > 10 µM (inactive) | > 10 µM (inactive) | > 10 µM (inactive) | > 10 µM (inactive) | > 10 µM (inactive) | > 10 µM (inactive) | > 10 µM (inactive) | > 10 µM (inactive) | > 10 µM (inactive) | > 10 µM (inactive) | > 10 µM (inactive) | > 10 µM (inactive) | > 10 µM (inactive) | > 10 µM (inactive) | > 10 µM (inactive) | – |
| C/C(=N\Nc1nc2ccccc2o1)c1cc2ccccc2cn1 | 2.98 µM (inactive) | < 0.01 µM | 0.364 µM (active) | < 0.0188 µM (active) | 0.349 µM (active) | 0.946 µM (active) | < 0.0281 µM (active) | 0.0101 µM (active) | < 0.0187 µM (active) | < 0.01 µM (active) | < 0.01 µM (active) | < 0.01 µM (active) | 0.14 µM (active) | 0.237 µM (active) | < 0.01 µM (active) | 0.0906 µM (active) | 0.173 µM (active) | 0.225 µM (active) | – |
